The values below come from ChEMBL document CHEMBL1145136, “Molecular determinants of steroid inhibition for the mouse constitutive androstane receptor” (J Med Chem, 2003).

The first series has as its target T1, Nuclear receptor subfamily 1 group I member 3 (Mus musculus, UniProt O35627).
T1 sequence (O35627 whole entry): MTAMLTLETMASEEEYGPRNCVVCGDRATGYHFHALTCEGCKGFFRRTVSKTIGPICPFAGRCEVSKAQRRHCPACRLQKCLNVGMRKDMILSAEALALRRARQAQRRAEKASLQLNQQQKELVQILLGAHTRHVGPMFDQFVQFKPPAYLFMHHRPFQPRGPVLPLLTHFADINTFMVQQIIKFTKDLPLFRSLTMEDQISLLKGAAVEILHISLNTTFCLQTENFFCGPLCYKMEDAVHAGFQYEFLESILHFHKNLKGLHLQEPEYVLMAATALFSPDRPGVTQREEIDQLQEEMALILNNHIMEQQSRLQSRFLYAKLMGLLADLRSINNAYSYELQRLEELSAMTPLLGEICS
Briefly: Inhibitory concentration against mouse constitutive androstane receptor (mCAR) activity was determined as pIC50.
Settings: not given
In the case of `CC12C=CCC1C1CCC3=CC(=O)CCC3(C)C1CC2` (stereo unspecified), 0.794 µM corresponded to half-maximal inhibition (IC50).
`CC12CCC(=O)C=C1CCC1C2CCC2(C)C1CC[C@@H]2C(=O)O` (stereo partly specified): the midpoint of inhibition, the IC50, lay at 39.8 µM. Compared with the last compound, the IC50 is about 50-fold higher.
As to `CC12CC[C@H]3[C@@H](CC[C@H]4CC(=O)CCC43C)[C@@H]1CCC2=O` (stereo partly specified), the concentration for half-maximal inhibition (IC50) (commonly the concentration at which inhibition is half-maximal) is 5.01 µM. This IC50 lies about 7.9-fold lower than the previous one.

The target in the next series is T2, mouse constitutive androstane receptor (mCAR, NR1I3) (Mus musculus, UniProt O35627).
T2 sequence (O35627 whole entry): T1 sequence (O35627 whole entry)
Briefly: Inhibition of mouse constitutive androstane receptor (mCAR) activity at 10 uM was determined as percent remaining activity. Particulars: read-out: Remaining activity.
Take `CC12CCC3C(CCC4=CC(=O)[C@H](O)CC43C)C1CCC2=O` (stereo partly specified): the activity at 10 µM amounted to 41%.
In the case of `CC12C=CCC1C1CCC3=CC(=O)CCC3(C)C1CC2` (stereo unspecified), the activity at 10 µM was found to be 7%.
For `CC12CCC3C(C1CCC2=O)[C@H](O)CC1=CC(=O)CCC13C` (stereo partly specified), the activity at 10 µM turned out to be 97%.
With `CC12CCC3C(CC[C@H]4CC=CCC34C)C1CCC2=O` (stereo partly specified), the activity at 10 µM worked out at 42%.
Turning to `CC12C=CCC1C1CC[C@H]3C[C@H](O)CCC3(C)C1CC2` (stereo partly specified), the activity at 10 µM came to 4%.
On to `CC12C=CCC1C1CC[C@H]3CC(=O)CCC3(C)C1CC2` (stereo partly specified), for which the activity at 10 µM is 5%.
As to `CC12CCC3C(C[C@@H](O)C4=CC(=O)CCC43C)C1CCC2=O` (stereo partly specified), the activity at 10 µM turned out to be 89%.
In the case of `CC12CCC3C(CCC4=C[C@H](O)CCC43C)C1CCC2=O` (stereo partly specified), the activity at 10 µM came out at 66%.
For the compound `CC12CCC(=O)C=C1CCC1C2CCC2(C)C1CC[C@@H]2C(=O)O` (stereo partly specified), the activity at 10 µM came to 81%.
As for `CC12CCC3C(CCC4=CC(=O)CCC43C)C1C[C@@H](O)C2=O` (stereo partly specified), the activity at 10 µM came out at 62%.
Consider `C[C@]12CCC(=O)C=C1CC[C@@H]1[C@@H]2[C@@H](O)C[C@]2(C)C(=O)CC[C@@H]12`, for which the activity at 10 µM amounted to 83%.
As for `C[C@@]12CCC[C@H]1[C@@H]1CC[C@H]3C[C@H](O)CC[C@]3(C)[C@H]1CC2`, the activity at 10 µM worked out at 4%.
With `C[C@@]12CCC[C@H]1[C@@H]1CC[C@@H]3C[C@H](O)CC[C@]3(C)[C@H]1CC2`, the activity at 10 µM was 4%.
In the case of `C[C@@]12CCC[C@H]1[C@@H]1CCc3cc(O)ccc3[C@H]1CC2`, the activity at 10 µM came out at 56%.
`CC12CC[C@H]3[C@@H](CC[C@H]4CC(=O)CCC43C)[C@@H]1CCC2=O` (stereo partly specified): the activity at 10 µM was determined as 34%.
With `CC12CC[C@@H]3C4CC[C@@H](O)C[C@@H]4CC[C@H]3[C@@H]1CCC2=O` (stereo partly specified), the activity at 10 µM is 91%.
As to `CC12CC[C@@H]3C4CCC(=O)C[C@@H]4CC[C@H]3[C@@H]1CCC2=O` (stereo partly specified), the activity at 10 µM worked out at 80%.
Same read-out and setting: next, `CC12CC[C@H]3[C@@H](CC[C@@H]4CCCCC43C)[C@@H]1CCC2=O` (stereo partly specified): 45%; `CCC1CC[C@H]2[C@@H]3CC[C@H]4CC(=O)CCC4(C)[C@H]3CCC12C` (stereo partly specified): 52%; `CC12CCC(=O)C[C@@H]1CC[C@@H]1[C@@H]2CCC2(C)[C@@H](O)CC[C@@H]12` (stereo partly specified): 53%.
On to `CC12CCC[C@H]1[C@@H]1CC[C@H]3CC(=O)CCC3(C)[C@H]1CC2` (stereo partly specified), for which the activity at 10 µM was 12%.
As for `CC12CC[C@@H](O)C[C@@H]1CC[C@@H]1[C@@H]2CCC2(C)[C@@H](O)CC[C@@H]12` (stereo partly specified), the activity at 10 µM was found to be 63%.
Same read-out and setting: as for `CC12CCC3C(CC[C@H]4CC(=O)C=CC34C)C1CCC2=O` (stereo partly specified), the figure is 90%.
For `CC12CCC3C(C[C@H](O)C4=CC(=O)CCC43C)C1CCC2=O` (stereo partly specified), the activity at 10 µM stood at 81%.
Consider `CC12C=CCC1C1CC[C@H]3C[C@@H](O)CCC3(C)C1CC2` (stereo partly specified), for which the activity at 10 µM amounted to 28%.
Regarding `CC(=O)[C@H]1CC[C@H]2[C@@H]3CC[C@H]4CC(=O)CC[C@]4(C)[C@H]3CC[C@]12C`, the activity at 10 µM was determined as 73%.
Same read-out and setting: as for `CC(=O)[C@H]1CC[C@H]2[C@@H]3CC[C@@H]4CC(=O)CC[C@]4(C)[C@H]3CC[C@]12C`, the figure is 20%; as for `C[C@]12CCC(=O)C=C1CCC1[C@@H]2C(=O)C[C@@]2(C)[C@H]1CC[C@]2(O)C(=O)CO` (single isomer, unassigned) [CORTISONE], 80%; as for `C[C@]12CCC(=O)C=C1CCC1[C@@H]2[C@@H](O)C[C@@]2(C)[C@H]1CC[C@]2(O)C(=O)CO` (single isomer, unassigned) [HYDROCORTISONE], 68%.
Regarding `C[C@]12CCC(=O)C=C1CC[C@@H]1[C@@H]2CC[C@]2(C)C(=O)CC[C@@H]12` [ANDROSTENEDIONE], the activity at 10 µM was determined as 56%.
With `C[C@]12C=CC(=O)C=C1CC[C@@H]1[C@@H]2CC[C@]2(C)C(=O)CC[C@@H]12` [ANDROSTENEDONE], the activity at 10 µM is 89%.
In the case of `CC(=O)[C@H]1CC[C@H]2[C@@H]3CC[C@H]4C[C@H](O)CC[C@]4(C)[C@H]3CC[C@]12C` [BREXANOLONE], the activity at 10 µM came out at 19%.
Consider `C[C@]12C[C@H](O)[C@H]3[C@@H](CCC4=CC(=O)CC[C@@]43C)[C@@H]1CC[C@@H]2C(=O)CO` [CORTICOSTERONE], for which the activity at 10 µM was determined as 80%.
On the same count and under the same terms, next, `C[C@]12CC[C@H]3[C@@H](CCC4=CC(=O)CC[C@@]43C)[C@@H]1CC[C@@H]2C(=O)CO` [DESOXYCORTICOSTERONE]: 58%; `C[C@@H]1C[C@H]2[C@@H]3CCC4=CC(=O)C=C[C@]4(C)[C@@]3(F)[C@@H](O)C[C@]2(C)[C@@]1(O)C(=O)CO` [DEXAMETHASONE]: 75%; `C[C@]12CC[C@H]3[C@@H](CCC4=CC(=O)CC[C@@]43C)[C@@H]1CC[C@H]2O` [EPITESTOSTERONE]: 73%.
The same measure, in the same setting: next, `C[C@]12CCC(=O)C(O)=C1CC[C@@H]1[C@@H]2CC[C@]2(C)C(=O)CC[C@@H]12` [FORMESTANE]: 53%; `C[C@]12CC[C@H](O)CC1=CC[C@@H]1[C@@H]2CC[C@]2(C)C(=O)CC[C@@H]12` [PRASTERONE]: 71%.
As for `CC(=O)[C@H]1CC[C@H]2[C@@H]3CC=C4C[C@@H](O)CC[C@]4(C)[C@H]3CC[C@]12C` [PREGNENOLONE], the activity at 10 µM was found to be 95%.
On to `C[C@]12CCC(=O)C[C@@H]1CC[C@@H]1[C@@H]2CC[C@]2(C)[C@@H](O)CC[C@@H]12` [STANOLONE], for which the activity at 10 µM is 69%.
On the same count and under the same terms, next, `C[C@]12CC[C@H]3[C@@H](CCC4=CC(=O)CC[C@@]43C)[C@@H]1CC[C@@H]2O` [TESTOSTERONE]: 78%.

For the next series, the target named is T1, Nuclear receptor subfamily 1 group I member 3. Briefly: Inhibitory concentration against mammalian m-constitutive androstane receptor (mCAR) activity.
Settings: not given
In turn, `C[C@]12CC[C@@H](O)C[C@@H]1CC[C@@H]1[C@@H]2CC[C@]2(C)C=CC[C@@H]12` [ANDROSTENOL] registered an IC50 of 0.25 µM.
`C[C@]12CC[C@H]3[C@@H](CCC4=CC(=O)CC[C@@]43C)[C@@H]1CC[C@@H]2O` [TESTOSTERONE] registered an IC50 of 30 µM. Compared with the last compound, the IC50 is about 120-fold higher.
